Assay results: patent US9624182B2, “Compounds as lysophosphatidic acid receptor antagonists” (Amira Pharmaceuticals, Inc., priority 2009, dated 2017)

Biological target: T1, human LPA1 (Homo sapiens, UniProt Q92633)
T1 construct: the full-length cDNA for human LPA1 was obtained by PCR of the reverse transcription reaction; expressed in transfected cells
Test: LPA1 calcium flux assay
Type: cell-based
Conditions: CHO cells expressing human LPA1, stimulated with 10 nM LPA; read-out: HLPA1 Ca Flux IC50
Experimental: A 1.1 kb cDNA encoding the human LPA1 receptor was cloned from human lung. Human lung RNA (Clontech Laboratories, Inc. USA) was reverse transcribed using the RETROscript kit (Ambion, Inc.) and the full-length cDNA for human LPA1 was obtained by PCR of the reverse transcription reaction. The nucleotide sequence of the cloned human LPA1 was determined by sequencing and confirmed to be identical to the published human LPA1 sequence (An et al. Biochenm. Biophys. Res. Commun. 231:619 (1997). The cDNA was cloned into the pCDNA5/FRT expression plasmid and transfected in CHO cells using lipofectamine 2000 (Invitrogen Corp., USA). Clones stably expressing human LPA1 were selected using hygromycin and identified as cells that show Ca-influx in response to LPA.
Human LPA1 or LPA3 expressing CHO cells are seeded at 20,000-45,000 cells per well in a 96-well poly-D-lysine coated plate one or two days before the assay. Prior to the assay, the cells are washed once with PBS and then cultured in serum-free media overnight. On the day of the assay, a calcium indicator dye (Calcium 4, Molecular Devices) in assay buffer (HBSS with Ca^2+ and Mg^2+ and containing 20 mM Hepes and 0.3% fatty-acid free human serum albumin) is added to each well and incubation continued for 1 hour at 37° C. 10 μl of test compounds in 2.5% DMSO are added to the cells and incubation continued at room temperature for 30 minutes. Cells are the stimulated by the addition of 10 nM LPA and intracellular Ca^2+ measured using the Flexstation 3 (Molecular Devices). IC50s are determined using Graphpad prism analysis of drug titration curves.

T1 sequence (Q92633 whole entry): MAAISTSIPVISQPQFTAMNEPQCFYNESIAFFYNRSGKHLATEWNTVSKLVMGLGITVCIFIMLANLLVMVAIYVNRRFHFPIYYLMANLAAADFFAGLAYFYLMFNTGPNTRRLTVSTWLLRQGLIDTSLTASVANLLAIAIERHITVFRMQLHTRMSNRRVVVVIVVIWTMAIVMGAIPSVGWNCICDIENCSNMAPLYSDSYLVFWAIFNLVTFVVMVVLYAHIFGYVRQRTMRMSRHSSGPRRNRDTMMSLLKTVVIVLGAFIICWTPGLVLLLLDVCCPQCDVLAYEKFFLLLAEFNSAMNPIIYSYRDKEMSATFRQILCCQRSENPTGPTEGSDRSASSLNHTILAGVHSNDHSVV

| Structure (SMILES) | IC50 |
| --- | --- |
| Cc1noc(-c2ccc(-c3ccc([C@@H]4C[C@H]4C(=O)O)cc3)cc2)c1/C=C/CCc1ccccc1 (relative stereo) [Compound 1-128, (trans)-2-{4′-[3-Methyl-4-(4-phenyl-but-1-enyl)-isoxazol-5-yl]-biphenyl-4-yl}-cyclopropanecarboxylic acid] | 1000 to 50000 nM |
| Cc1noc(-c2ccc(-c3ccc([C@@H]4C[C@H]4C(=O)O)cc3)cc2)c1CSCCc1ccccc1 (relative stereo) [Compound 1-130, (trans)-2-[4′-(3-Methyl-4-phenethylsulfanylmethyl-isoxazol-5-yl)-biphenyl-4-yl]-cyclopropanecarboxylic acid] | 300 to 1000 nM |
| Cc1noc(-c2ccc(-c3ccc([C@H]4C[C@H]4C(=O)O)cc3)cc2)c1CSCCc1ccccc1 (single isomer, unassigned) [Compound 1-150, (cis)-2-[4′-(3-Methyl-4-phenethylsulfanylmethyl-isoxazol-5-yl)-biphenyl-4-yl]-cyclopropanecarboxylic acid] | 1000 to 50000 nM |
| Cc1noc(-c2ccc(-c3ccc(C4(C(=O)O)CC4)cc3)cc2)c1NC(C)CCc1ccccc1 (single isomer, unassigned) [Compound 1-221, 1-{4′-[3-Methyl-4-(1-methyl-3-phenyl-propylamino)-isoxazol-5-yl]-biphenyl-4-yl}-cyclopropanecarboxylic acid] | < 300 nM |
| Cc1noc(-c2ccc(-c3ccc(CCC(=O)O)cc3)cc2)c1NC(C)CCc1cccc(C(F)(F)F)c1 (single isomer, unassigned) [Compound 1-234, 3-(4′-{3-Methyl-4-[1-methyl-3-(3-trifluoromethyl-phenyl)-propylamino]-isoxazol-5-yl}-biphenyl-4-yl)-propionic acid] | > 50000 nM |
| Cc1noc(-c2ccc(-c3ccc(CCC(=O)O)cc3)cc2)c1NC(C)CCc1cccc(C(F)(F)F)c1 (single isomer, unassigned) [Compound 1-235, 3-(4′-{3-Methyl-4-[1-methyl-3-(3-trifluoromethyl-phenyl)-propylamino]-isoxazol-5-yl}-biphenyl-4-yl)-propionic acid] | < 300 nM |
| Cc1noc(-c2ccc(-c3ccc(C4(C(=O)O)CC4)cc3)cc2)c1NC(C)CCc1cccc(Cl)c1 (single isomer, unassigned) [Compound 1-239, 1-(4′-{4-[3-(3-Chloro-phenyl)-1-methyl-propylamino]-3-methyl-isoxazol-5-yl}-biphenyl-4-yl)-cyclopropanecarboxylic acid] | < 300 nM |
| Cc1noc(-c2ccc(-c3ccc(C4(C(=O)O)CC4)cc3)cc2)c1NC(C)CCc1cccc(Cl)c1 (single isomer, unassigned) [Compound 1-240, 1-(4′-{4-[3-(3-Chloro-phenyl)-1-methyl-propylamino]-3-methyl-isoxazol-5-yl}-biphenyl-4-yl)-cyclopropanecarboxylic acid] | < 300 nM |
| Cc1noc(-c2ccc(-c3ccc(C4(C(=O)O)CC4)cc3)cc2)c1C(O)C(F)(F)CCc1ccccc1 (single isomer, unassigned) [Compound 1-254, 1-{4′-[4-(2,2-Difluoro-1-hydroxy-4-phenyl-butyl)-3-methyl-isoxazol-5-yl]-biphenyl-4-yl}-cyclopropanecarboxylic acid] | 300 to 1000 nM |
| Cc1noc(-c2ccc(-c3ccc(C4(C(=O)O)CC4)cc3)cc2)c1/C=C/[S+]([O-])Cc1ccccc1 (single isomer, unassigned) [Compound 1-262, 1-(4′-{3-Methyl-4-[(E)-2-(phenylmethanesulfinyl)-vinyl]-isoxazol-5-yl}-biphenyl-4-yl)-cyclopropanecarboxylic acid] | < 300 nM |
| Cc1noc(-c2ccc(-c3ccc(C4(C(=O)O)CC4)cc3)cc2)c1/C=C/[S+]([O-])Cc1ccccc1 (single isomer, unassigned) [Compound 1-263, 1-(4′-{3-Methyl-4-[(E)-2-(phenylmethanesulfinyl)-vinyl]-isoxazol-5-yl}-biphenyl-4-yl)-cyclopropanecarboxylic acid] | 1000 to 50000 nM |
| Cc1noc(-c2ccc(-c3ccc(C4(C(=O)O)CC4)cc3)cc2)c1NC(C)C(O)Cc1ccccc1 (single isomer, unassigned) [Compound 1-282, 1-{4′-[4-(2-Hydroxy-1-methyl-3-phenyl-propylamino)-3-methyl-isoxazol-5-yl]-biphenyl-4-yl}-cyclopropanecarboxylic acid] | < 300 nM |

Continued, values first:

| IC50 | Structure (SMILES) |
| --- | --- |
| < 300 nM | Cc1noc(-c2ccc(-c3ccc([C@H]4C[C@H]4C(=O)O)cc3)cc2)c1/C=C/CCc1ccccc1 (relative stereo) [Compound 1-129, (cis)-2-{4′-[3-Methyl-4-(4-phenyl-but-1-enyl)-isoxazol-5-yl]-biphenyl-4-yl}-cyclopropanecarboxylic acid] |
| < 300 nM | Cc1noc(-c2ccc(-c3ccc([C@H]4C[C@H]4C(=O)O)cc3)cc2)c1CSCCc1ccccc1 (relative stereo) [Compound 1-131, (cis)-2-[4′-(3-Methyl-4-phenethylsulfanylmethyl-isoxazol-5-yl)-biphenyl-4-yl]-cyclopropanecarboxylic acid] |
| < 300 nM | Cc1noc(-c2ccc(-c3ccc([C@H]4C[C@H]4C(=O)O)cc3)cc2)c1CC(F)(F)CCc1ccccc1 (relative stereo) [Compound 1-135, (cis)-2-{4′-[4-(2,2-Difluoro-4-phenyl-butyl)-3-methyl-isoxazol-5-yl]-biphenyl-4-yl}-cyclopropanecarboxylic acid] |
| < 300 nM | Cc1noc(-c2ccc(-c3ccc([C@H]4C[C@H]4C(=O)O)cc3)cc2)c1C(O)CCCc1ccccc1 (relative stereo) [Compound 1-144, (cis)-2-{4′-[4-(1-Hydroxy-4-phenyl-butyl)-3-methyl-isoxazol-5-yl]-biphenyl-4-yl}-cyclopropanecarboxylic acid] |
| < 300 nM | Cc1noc(-c2ccc(-c3ccc([C@H]4C[C@H]4C(=O)O)cc3)cc2)c1CSCCc1ccccc1 (single isomer, unassigned) [Compound 1-149, (cis)-2-[4′-(3-Methyl-4-phenethylsulfanylmethyl-isoxazol-5-yl)-biphenyl-4-yl]-cyclopropanecarboxylic acid] |
| < 300 nM | Cc1noc(-c2ccc(-c3ccc(C4(C(=O)O)CC4)cc3)cc2)c1C(O)CCCc1ccccc1 (single isomer, unassigned) [Compound 1-156, 1-{4′-[4-(1-Hydroxy-4-phenyl-butyl)-3-methyl-isoxazol-5-yl]-biphenyl-4-yl}-cyclopropanecarboxylic acid] |
| < 300 nM | Cc1noc(-c2ccc(-c3ccc(CC(=O)O)cc3)cc2)c1C(O)CCCc1ccccc1 (single isomer, unassigned) [Compound 1-174, {4′-[4-(1-Hydroxy-4-phenyl-butyl)-3-methyl-isoxazol-5-yl]-biphenyl-4-yl}-acetic acid] |
| < 300 nM | Cc1noc(-c2ccc(-c3ccc(C4(CC(=O)O)CC4)cc3)cc2)c1C(O)CCCc1ccccc1 (single isomer, unassigned) [Compound 1-176, (1-{4′-[4-(1-Hydroxy-4-phenyl-butyl)-3-methyl-isoxazol-5-yl]-biphenyl-4-yl}-cyclopropyl)-acetic acid] |
| < 300 nM | Cc1noc(-c2ccc(-c3ccc(C4(CC(=O)O)CC4)cc3)cc2)c1C(O)CCCc1ccccc1 (single isomer, unassigned) [Compound 1-177, (1-{4′-[4-(1-Hydroxy-4-phenyl-butyl)-3-methyl-isoxazol-5-yl]-biphenyl-4-yl}-cyclopropyl)-acetic acid] |
| < 300 nM | Cc1noc(-c2ccc(-c3ccc(C4(C(=O)O)CC4)cc3)cc2)c1C(O)COCc1ccccc1 (single isomer, unassigned) [Compound 1-198, 1-{4′-[4-(2-Benzyloxy-1-hydroxy-ethyl)-3-methyl-isoxazol-5-yl]-biphenyl-4-yl}-cyclopropanecarboxylic acid] |
| < 300 nM | Cc1noc(-c2ccc(-c3ccc(C4(C(=O)O)CC4)cc3)cc2)c1C(O)COCc1ccccc1 (single isomer, unassigned) [Compound 1-199, 1-{4′-[4-(2-Benzyloxy-1-hydroxy-ethyl)-3-methyl-isoxazol-5-yl]-biphenyl-4-yl}-cyclopropanecarboxylic acid] |
| < 300 nM | Cc1noc(-c2ccc(-c3ccc(C4CC4C(=O)O)cc3)cc2)c1[C@H](O)COCc1ccccc1 (single isomer, unassigned) [Compound 1-216] |
| < 300 nM | Cc1noc(-c2ccc(-c3ccc(C4CC4C(=O)O)cc3)cc2)c1[C@H](O)COCc1ccccc1 (single isomer, unassigned) [Compound 1-217] |
| < 300 nM | Cc1noc(-c2ccc(-c3ccc(C4(C(=O)O)CC4)cc3)cc2)c1NC(C)CCc1ccccc1 (single isomer, unassigned) [Compound 1-220, 1-{4′-[3-Methyl-4-(1-methyl-3-phenyl-propylamino)-isoxazol-5-yl]-biphenyl-4-yl}-cyclopropanecarboxylic acid] |
